# In patent US4309559A, “Sulphonamides useful as pesticides” (FBC Limited, priority 1977, dated 1982):
# Like-named read-outs stand apart in the source and are kept apart here.
# Columns and labels:
# Assay type in all cases: in vivo
# [1] = system: potato blight Phytophthora infestans; conditions: 500 ppm; 5 days; controls less than 5%
# [2] = system: rice blast Pyricularia oryzae; conditions: soil and leaves, 7 days, controls less than 5%
# [3] = system: Blackgrass (Alopecurus myosuroides); experiment: Pre-emergence soil surface spray, blackgrass; conditions: soil surface spray 2.8 kg/ha, 21 days, 0=no effect, 100=complete kill
# Source text: (§1) Seeds of the plant species listed below were sown in John Innes I potting compost in aluminium pans, 19 cm long×9.5 cm wide×5.0 cm high, one species per pan. The soil surface was then sprayed with a compound listed below, formulated as a solution in 1:1 by volume aqueous acetone except for the compound of Example 44 which was formulated as an aqueous suspension containing 1000 parts per million of the wetting agent Lissapol NX (nonylphenol/ethylene oxide condensate). Each compound was applied at a rate of 2.8 kg of active ingredient per hectare in 450 liters of spray liquid per hectare. The pans were then watered, and placed in a controlled environment room (22° C., relative humidity 65-85%, 14 hours per day artificial illumination at 17,000 lux) for 21 days. The plants were then visually assessed for any growth regulatory or herbicidal effects. All differences from an untreated control were scored on a scale from 0-100, where 0 signifies no effect and 100 signifies complete kill.
# [4] = system: Linseed (Linum usitatissimum); experiment: Soil incorporation (attaclay/sand dust), growth regulatory or herbicidal effects, linseed; conditions: 504 h, soil incorporation 26 ppm, 21 days, 0=no effect, 100=complete kill, read-out: growth regulatory or herbicidal effect score
# Source text: (§2) The compounds listed below were each formulated as an attaclay/sand dust and incorporated into John Innes I potting compost at a rate equivalent to 26 parts per million weight/volume of active ingredient to soil and placed in anodised aluminium pans, 19 cm long×9.5 cm wide×5.0 cm deep. This rate is approximately equivalent to a soil surface application of 11.2 kg active ingredient/hectare cultivated to a depth of 5 cm. Seeds of the species listed below were sown in the treated soil, watered and placed in a controlled environment room (22° C.; 65-85% relative humidity; 14 hours per day artificial illumination at 13,000 lux) for 21 days. The plants were then visually assessed for any growth regulatory or herbicidal effects. All differences from an untreated control were scored on a scale from 0-100, where 0 signifies no effect and 100 signifies complete kill.
# (§3) The compounds listed below were tested according to the procedure of Examples 56-60 but at 130 parts per million weight/volume of active ingredient to soil. This rate is approximately equivalent to a soil surface application of 56 kg active ingredient per hectare cultivated to a depth of 5 cm.
# (§4) The product of Example 95 was tested according to the procedure of Examples 56-60 but at 130 and 26 parts per million weight/volume. The results were as follows:
# (§5) N-(2-oxopropyl)-2'-chloro-6'-methyl-methanesulphonanilide, formulated as an attaclay/sand dust, was incorporated in John Innes I potting compost at a rate equivalent to 130 parts per million weight/volume of active ingredient to soil and placed in anodised aluminium pans, 19 cm long×9.5 cm wide×5.0 cm deep. These rates are approximately equivalent to a soil surface application of 56 kg active ingredient per hectare cultivated to a depth of 5 cm. Seeds of Peas, Mustard, Linseed, Maize, Oats and Ryegrass were sown in the treated soil, watered and placed in a controlled environment room (22° C.; 65-85% relative humidity; 14 hours artificial illumination at 13000 lux) for 21 days.
# (§6) The plants were then visually assessed for any growth regulatory or herbicidal effects. All differences from an untreated control were scored on a scale from 0-100, where 0 signifies no effect and 100 signifies complete suppression.
# [5] = system: Ryegrass (Lolium perenne); experiment: Post-emergence foliar spray, herbicidal/growth regulant response, ryegrass; conditions: 168 h, foliar spray 11.2 kg/ha, 7 days, 0=no effect, 100=complete kill, read-out: herbicidal or growth regulant response index
# Protocol: (§7) Seeds of the plant species listed below were sown in anodised aluminium pans, 19 cm long×9.5 cm wide×5 cm deep, containing John Innes I potting compost. They were then watered and placed in a controlled environment room (22° C.; 65-85% relative humidity; 14 hours per day artificial illumination at 13,000 lux). Fourteen days after sowing, the seedlings received a foliar spray of a compound listed below, formulated as a solution in 1:1 by volume aqueous acetone. The concentration of active ingredient and volume of application were adjusted so as to be equivalent to a rate of 11.2 kg/ha in 450 liters per hectare. After seven days growth in the controlled environment room, the plants were visually assessed for any herbicidal or growth regulant response. All differences from the untreated control were scored according to an index where 0=no effect and 100=complete kill.
# (§8) The product of Example 95 was tested according to the procedure of Examples 49-55.
# [6] = system: Barnyardgrass (Echinochloa crus-galli); experiment: Pre-emergence soil surface spray, barnyardgrass; conditions: soil surface spray 2.8 kg/ha, 21 days, 0=no effect, 100=complete kill
# Source text: as §1
# [7] = system: French beans (Phaseolus vulgaris); experiment: Post-emergence foliar spray, herbicidal/growth regulant response, French beans; conditions: foliar spray 11.2 kg/ha, 7 days, 0=no effect, 100=complete kill
# Protocol: as §7, §8
# Wild Oat (Avena fatua) = experiment: Pre-emergence soil surface spray, wild oat; conditions: soil surface spray 2.8 kg/ha, 21 days, 0=no effect, 100=complete kill
# Source text: as §1
# Barley (Hordeum vulgare) = experiment: Pre-emergence soil surface spray, barley; conditions: soil surface spray 2.8 kg/ha, 21 days, 0=no effect, 100=complete kill
# Source text: as §1
# [8] = system: Crabgrass (Digitaria sanguinalis); experiment: Pre-emergence soil surface spray, crabgrass; conditions: soil surface spray 2.8 kg/ha, 21 days, 0=no effect, 100=complete kill
# Source text: as §1
# Maize (Zea mays) = experiment: Soil incorporation (attaclay/sand dust), growth regulatory or herbicidal effects, maize; conditions: 504 h, soil incorporation 26 ppm, 21 days, 0=no effect, 100=complete kill, read-out: growth regulatory or herbicidal effect score
# Source text: as §2, §3, §4, §5, §6
# Mustard (Sinapis alba) [9] = experiment: Post-emergence foliar spray, herbicidal/growth regulant response, mustard; conditions: 168 h, foliar spray 11.2 kg/ha, 7 days, 0=no effect, 100=complete kill, read-out: herbicidal or growth regulant response index
# Protocol: as §7, §8
# [10] = system: Wheat (Triticum aestivum); experiment: Pre-emergence soil surface spray, wheat; conditions: soil surface spray 2.8 kg/ha, 21 days, 0=no effect, 100=complete kill
# Source text: as §1
# [11] = system: Sugarbeet (Beta vulgaris); experiment: Post-emergence foliar spray, herbicidal/growth regulant response, sugarbeet; conditions: 168 h, foliar spray 11.2 kg/ha, 7 days, 0=no effect, 100=complete kill, read-out: herbicidal or growth regulant response index
# Protocol: as §7, §8
# [12] = system: Linseed (Linum usitatissimum); experiment: Post-emergence foliar spray, herbicidal/growth regulant response, linseed; conditions: 168 h, foliar spray 11.2 kg/ha, 7 days, 0=no effect, 100=complete kill, read-out: herbicidal or growth regulant response index
# Protocol: as §7, §8
# Peas (Pisum sativum) [13] = experiment: Soil incorporation (attaclay/sand dust), growth regulatory or herbicidal effects, peas; conditions: Lathyrus oleraceus, 504 h, soil incorporation 26 ppm, 21 days, 0=no effect, 100=complete kill, read-out: growth regulatory or herbicidal effect score
# Source text: as §2, §3, §4, §5, §6
# [14] = system: Ryegrass (Lolium perenne); experiment: Soil incorporation (attaclay/sand dust), growth regulatory or herbicidal effects, ryegrass; conditions: 504 h, soil incorporation 26 ppm, 21 days, 0=no effect, 100=complete kill, read-out: growth regulatory or herbicidal effect score
# Source text: as §2, §3, §4, §5, §6
# Mustard (Sinapis alba) [15] = experiment: Soil incorporation (attaclay/sand dust), growth regulatory or herbicidal effects, mustard; conditions: 504 h, soil incorporation 26 ppm, 21 days, 0=no effect, 100=complete kill, read-out: growth regulatory or herbicidal effect score
# Source text: as §2, §3, §4, §5, §6
# Peas (Pisum sativum) [16] = experiment: Post-emergence foliar spray, herbicidal/growth regulant response, peas; conditions: Lathyrus oleraceus, 168 h, foliar spray 11.2 kg/ha, 7 days, 0=no effect, 100=complete kill, read-out: herbicidal or growth regulant response index
# Protocol: as §7, §8
# Oats (Avena sativa) = experiment: Soil incorporation (attaclay/sand dust), growth regulatory or herbicidal effects, oats; conditions: 504 h, soil incorporation 26 ppm, 21 days, 0=no effect, 100=complete kill, read-out: growth regulatory or herbicidal effect score
# Source text: as §2, §3, §4, §5, §6
# Oat (Avena sativa) = experiment: Post-emergence foliar spray, herbicidal/growth regulant response, oat; conditions: 168 h, foliar spray 11.2 kg/ha, 7 days, 0=no effect, 100=complete kill, read-out: herbicidal or growth regulant response index
# Protocol: as §7, §8
# [17] = system: vine downy mildew, Plasmopara viticola; experiment: Vine downy mildew control on vine plants (application to soil and leaves); conditions: 2000 ppm, 12 days, controls less than 5%
# Protocol: Aqueous acetone solutions of each of the compounds listed in the Table below, containing 2000 parts per million (ppm), together with 125 ppm of a suitable wetting agent, were applied to the soil surrounding the roots and leaves of vine plants having five fully expanded leaves.
# The treated plants, together with controls treated with wetting agent alone, were inoculated 24 hours after the chemical application with an aqueous suspension of sporangia of the disease organism known as vine downy mildew, Plasmopara viticola.
structure (smiles),measurement,setting,value
CON=C(C)CN(c1c(C)cccc1C)S(C)(=O)=O [Example 249],"% Control, potato blight",[1],74%
same,"% Control, rice blast",[2]; 500 ppm,66%
CCCS(=O)(=O)N(c1c(C)cccc1C)C(C)C(=O)OC(C)C (centres unmarked) [Example 3],growth regulatory or herbicidal effect score,[3],90
same,pest or weed control at 26 µg/mL,[4],20%
same,pest or weed control at 11200 g/ha,[5],15%
same,growth regulatory or herbicidal effect score,[6],60
same,herbicidal or growth regulant response index,[7],80
same,growth regulatory or herbicidal effect score,Wild Oat (Avena fatua),80
same,growth regulatory or herbicidal effect score,Barley (Hordeum vulgare),0
same,growth regulatory or herbicidal effect score,[8],90
same,plant injury at 26 µg/mL,Maize (Zea mays),20%
same,pest or weed control at 11200 g/ha,Mustard (Sinapis alba) [9],90%
same,growth regulatory or herbicidal effect score,[10],0
same,plant injury at 11200 g/ha,[11],90%
same,pest or weed control at 11200 g/ha,[12],30%
same,pest or weed control at 26 µg/mL,Peas (Pisum sativum) [13],0%
same,pest or weed control at 26 µg/mL,[14],90%
same,pest or weed control at 26 µg/mL,Mustard (Sinapis alba) [15],90%
same,pest or weed control at 11200 g/ha,Peas (Pisum sativum) [16],5%
same,plant injury at 26 µg/mL,Oats (Avena sativa),20%
same,plant injury at 11200 g/ha,Oat (Avena sativa),5%
"Cc1cccc(Cl)c1N(CC1(C)OCCO1)S(C)(=O)=O [Example 230, N-[(2-methyl-1,3-dioxolan-2-yl)methyl]-2'-chloro-6'-methylmethanesulphonanilide]",% Control Vine Downing Mildew,[17],80%
"CCS(=O)(=O)N(CC(=O)C(C)(C)C)c1c(C)cccc1C [Example 212, N-2-oxo-3,3-dimethylbutyl-2',6'-dimethyl-ethanesulphonanilide]","% Control, rice blast",[2]; 2000 ppm,80%
